Test [1] is filed under the species Rattus norvegicus. The note with it: at 1 µM.
The target of test [2] is Sigma non-opioid intracellular receptor 1 (Cavia porcellus) (UniProt Q60492). As to conditions: at 1 µM.
Description: Displacement of [3H](+)-pentazocine from sigma1 opioid receptor from guinea pig brain cortex at 1 uM after 150 mins by scintillation counting
Test [3] is described as follows: Displacement of [3H]-(+)-MK801 from PCP binding site of NMDA receptor from pig brain cortex after 150 mins by scintillation counting. Set-up: species or system Sus scrofa. (Displacement assays read how much labelled ligand stays bound in the presence of the test substance.)
Test [4] is filed under the species Sus scrofa. As to conditions: at 1 µM.
Description: Displacement of [3H]-(+)-MK801 from PCP binding site of NMDA receptor from pig brain cortex at 1 uM after 150 mins by scintillation counting
The target in test [5] is Sigma non-opioid intracellular receptor 1 (Cavia porcellus, UniProt Q60492). Kind of test: Displacement of [3H](+)-pentazocine from sigma1 opioid receptor from guinea pig brain cortex after 150 mins by scintillation counting.
A short description of test [6]: Displacement of [3H]ditolylguanidine from sigma2 opioid receptor from rat brain cortex after 150 mins by scintillation counting.

Structures are written as SMILES.

Chain of Sigma non-opioid intracellular receptor 1 (Cavia porcellus) (Q60492 whole entry): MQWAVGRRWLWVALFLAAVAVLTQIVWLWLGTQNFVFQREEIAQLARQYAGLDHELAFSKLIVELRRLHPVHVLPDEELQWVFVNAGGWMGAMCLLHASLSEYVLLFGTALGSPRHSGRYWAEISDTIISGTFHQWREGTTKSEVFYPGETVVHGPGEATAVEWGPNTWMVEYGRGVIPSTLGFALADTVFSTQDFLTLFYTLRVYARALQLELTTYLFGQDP
Chain of Sigma non-opioid intracellular receptor 1 (Q60492 whole entry): as above

In the case of `FC1CCNC(C2COC(c3ccccc3)(c3ccccc3)O2)C1` (racemic; form 2) [listing 1 of 2 here], the values for the inhibition in test [1] and in test [2] were 19% and 5%, respectively.

In test [3], `FC1CCNC(C2COC(c3ccccc3)(c3ccccc3)O2)C1` (racemic; form 2) [listing 2 of 2 here] gave an inhibition constant (Ki) of 27 nM.

Take `CC12CC3CC(C)(C1)CC(N)(C3)C2` [MEMANTINE]: the affinity in test [3], expressed as Ki, was 1200 nM.

`FC1(F)CCNC(C2COC(c3ccccc3)(c3ccccc3)O2)C1` (racemic): the figures for the inhibition in test [1], in test [4] and in test [2] were 17%, 58% and 0%, respectively. In addition, the figures for the Ki in test [3], in test [5] and in test [6] were 81 nM, 810 nM and 137 nM, respectively.

`OC1CCNC(C2COC(c3ccccc3)(c3ccccc3)O2)C1` (racemic) showed an inhibition in test [1] of 13%. The Ki in test [3] came to 44 nM; in test [5], 971 nM.

For `FC1CCNC(C2COC(c3ccccc3)(c3ccccc3)O2)C1` (racemic; form 1), the inhibition in test [1] stood at 19%; in test [4], 0%; in test [2] it was 5%.

Compound `O=C1CCNC(C2COC(c3ccccc3)(c3ccccc3)O2)C1` (racemic) yielded an inhibitory constant (Ki) in test [3] of 470 nM. The inhibition in test [2] is 0%.

A word on the inhibition: it is the share of the control response that was lost under treatment. Lower therefore signals a weak effect. As usually defined, the Ki is a measure of affinity in units of concentration, obtained from inhibition or displacement. Higher therefore signals weaker binding.

(Values after ChEMBL document CHEMBL1165917, “Synthesis and NMDA receptor affinity of fluorinated dioxadrol analogues” (Bioorg Med Chem, 2010).)
